Like-named read-outs stand apart in the source and are kept apart here.
Tests used:
[1] = biological target: SMARCA4 (Homo sapiens, UniProt P51532); assay: HiBiT assay for protein degradation, Hela SMARCA4-HiBiT cells (A series); assay type: cell-based; design: fuse HiBiT to the carboxy terminus of SMARCA2 (Promega CS302365) or SMARCA4 (Promega CS3023225); host or cells: HeLa (CRISPR/Cas9 HiBiT knock-in); details: for DC50: read-out: SMARC A4 Hela HiBit DC50; for Dmax: read-out: SMARC A4 Hela HiBit Dmax(%)
Sequence of SMARCA4 (P51532 whole entry, the tested form may be a part): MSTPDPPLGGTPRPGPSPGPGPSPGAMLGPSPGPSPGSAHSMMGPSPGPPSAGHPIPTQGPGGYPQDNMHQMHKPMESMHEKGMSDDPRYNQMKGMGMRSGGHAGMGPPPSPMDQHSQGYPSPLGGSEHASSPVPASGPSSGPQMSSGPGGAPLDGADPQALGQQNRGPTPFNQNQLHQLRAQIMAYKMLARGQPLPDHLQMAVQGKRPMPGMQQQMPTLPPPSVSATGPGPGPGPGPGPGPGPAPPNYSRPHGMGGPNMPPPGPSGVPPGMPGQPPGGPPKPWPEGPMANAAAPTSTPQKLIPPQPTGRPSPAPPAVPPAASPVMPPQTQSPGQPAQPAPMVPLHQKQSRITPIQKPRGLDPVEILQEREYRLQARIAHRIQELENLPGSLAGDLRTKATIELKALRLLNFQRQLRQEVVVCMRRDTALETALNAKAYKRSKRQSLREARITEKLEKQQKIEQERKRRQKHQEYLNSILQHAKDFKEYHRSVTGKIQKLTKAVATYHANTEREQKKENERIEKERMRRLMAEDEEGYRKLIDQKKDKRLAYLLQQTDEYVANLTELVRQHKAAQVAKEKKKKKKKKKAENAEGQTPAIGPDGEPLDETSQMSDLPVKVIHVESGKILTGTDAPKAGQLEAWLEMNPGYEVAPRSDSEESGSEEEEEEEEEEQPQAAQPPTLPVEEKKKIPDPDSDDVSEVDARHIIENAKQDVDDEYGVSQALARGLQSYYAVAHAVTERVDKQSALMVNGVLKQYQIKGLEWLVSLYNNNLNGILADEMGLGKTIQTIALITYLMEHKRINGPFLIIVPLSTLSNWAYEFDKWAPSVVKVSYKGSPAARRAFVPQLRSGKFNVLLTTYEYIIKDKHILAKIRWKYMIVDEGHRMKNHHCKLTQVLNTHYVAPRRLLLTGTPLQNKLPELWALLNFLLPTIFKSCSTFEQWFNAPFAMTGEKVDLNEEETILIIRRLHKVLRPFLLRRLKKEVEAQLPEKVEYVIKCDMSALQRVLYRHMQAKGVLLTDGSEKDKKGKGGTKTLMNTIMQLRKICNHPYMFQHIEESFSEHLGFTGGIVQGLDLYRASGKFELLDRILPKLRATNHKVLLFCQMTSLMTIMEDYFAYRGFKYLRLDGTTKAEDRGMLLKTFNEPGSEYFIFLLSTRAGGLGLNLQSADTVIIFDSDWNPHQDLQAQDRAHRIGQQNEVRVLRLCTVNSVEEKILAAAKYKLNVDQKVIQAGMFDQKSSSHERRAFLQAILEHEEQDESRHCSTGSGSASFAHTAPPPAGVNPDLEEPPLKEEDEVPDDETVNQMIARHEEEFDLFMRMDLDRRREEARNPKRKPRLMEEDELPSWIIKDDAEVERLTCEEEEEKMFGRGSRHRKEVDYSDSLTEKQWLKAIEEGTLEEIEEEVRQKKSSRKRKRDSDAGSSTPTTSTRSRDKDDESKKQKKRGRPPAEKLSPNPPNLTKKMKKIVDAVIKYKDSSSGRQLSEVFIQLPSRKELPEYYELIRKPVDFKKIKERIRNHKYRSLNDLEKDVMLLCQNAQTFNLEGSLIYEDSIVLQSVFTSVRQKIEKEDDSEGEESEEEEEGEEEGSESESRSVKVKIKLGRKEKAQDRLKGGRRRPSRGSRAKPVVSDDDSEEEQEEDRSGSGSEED
How it was run: (§1)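 HeLa cells engineered by CRISPR/Cas9 to carry a HiBiT tag fused to the C-terminus of SMARCA4 (Promega CS3023225) were grown in DMEM supplemented with FBS and penicillin-streptomycin. After compound exposure, remaining SMARCA4 protein was quantified using the Nano-Glo® HiBiT Lytic Detection Assay (Promega N3050), and curves were fitted in GraphPad Prism.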

[2] = biological target: SMARCA2 (Homo sapiens, UniProt P51531); assay: HiBiT assay for protein degradation, Hela SMARCA2-HiBiT cells (A series); assay type: cell-based; design: Hela cells were genetically modified via CRISPR/Cas9 to fuse HiBiT to the carboxy terminus of SMARCA2; host or cells: HeLa (CRISPR/Cas9 HiBiT knock-in)
Sequence of SMARCA2 (P51531 whole entry): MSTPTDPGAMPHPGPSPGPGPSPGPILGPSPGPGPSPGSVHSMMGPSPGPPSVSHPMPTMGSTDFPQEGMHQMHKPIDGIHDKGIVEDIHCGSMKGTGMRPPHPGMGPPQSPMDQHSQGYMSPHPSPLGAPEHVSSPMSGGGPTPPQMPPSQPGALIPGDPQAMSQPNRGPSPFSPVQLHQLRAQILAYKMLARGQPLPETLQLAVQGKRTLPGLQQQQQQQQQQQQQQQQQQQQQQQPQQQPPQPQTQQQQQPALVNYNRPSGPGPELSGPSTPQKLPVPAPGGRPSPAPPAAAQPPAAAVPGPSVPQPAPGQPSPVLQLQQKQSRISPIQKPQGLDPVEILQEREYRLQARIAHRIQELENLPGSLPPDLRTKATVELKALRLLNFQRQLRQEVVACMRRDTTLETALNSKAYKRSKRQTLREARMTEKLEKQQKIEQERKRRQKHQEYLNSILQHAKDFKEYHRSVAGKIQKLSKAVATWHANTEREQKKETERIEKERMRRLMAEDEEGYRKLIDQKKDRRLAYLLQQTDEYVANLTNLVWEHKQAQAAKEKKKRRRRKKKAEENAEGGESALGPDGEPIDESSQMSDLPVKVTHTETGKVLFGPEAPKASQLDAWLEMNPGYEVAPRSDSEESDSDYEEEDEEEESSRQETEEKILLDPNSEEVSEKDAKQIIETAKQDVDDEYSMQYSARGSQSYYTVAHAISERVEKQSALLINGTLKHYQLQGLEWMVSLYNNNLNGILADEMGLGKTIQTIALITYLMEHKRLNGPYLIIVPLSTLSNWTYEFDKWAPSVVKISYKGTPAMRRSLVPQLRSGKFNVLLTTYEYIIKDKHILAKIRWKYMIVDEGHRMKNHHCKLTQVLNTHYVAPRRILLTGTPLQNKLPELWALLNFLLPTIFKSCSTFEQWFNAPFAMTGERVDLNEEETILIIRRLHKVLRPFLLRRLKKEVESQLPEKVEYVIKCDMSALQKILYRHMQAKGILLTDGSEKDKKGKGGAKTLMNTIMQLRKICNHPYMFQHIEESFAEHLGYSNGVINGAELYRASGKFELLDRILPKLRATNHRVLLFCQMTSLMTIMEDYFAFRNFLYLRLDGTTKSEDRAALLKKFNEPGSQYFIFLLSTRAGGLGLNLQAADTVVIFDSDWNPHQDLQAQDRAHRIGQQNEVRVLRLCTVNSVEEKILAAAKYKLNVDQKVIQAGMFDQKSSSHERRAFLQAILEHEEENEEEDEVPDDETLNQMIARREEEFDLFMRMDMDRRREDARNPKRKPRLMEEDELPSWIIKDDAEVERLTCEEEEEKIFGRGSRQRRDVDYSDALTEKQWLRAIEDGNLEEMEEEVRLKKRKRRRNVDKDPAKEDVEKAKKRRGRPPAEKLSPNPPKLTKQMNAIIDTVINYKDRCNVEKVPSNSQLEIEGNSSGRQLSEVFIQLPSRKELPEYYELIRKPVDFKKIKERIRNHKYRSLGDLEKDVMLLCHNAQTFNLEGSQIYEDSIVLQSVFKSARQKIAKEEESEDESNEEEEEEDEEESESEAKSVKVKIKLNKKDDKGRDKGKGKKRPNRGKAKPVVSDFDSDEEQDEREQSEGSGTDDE
How it was run: as §1, with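 “SMARCA2” for “SMARCA4”, “CS302365)” for “CS3023225)”, “treatment,” for “compound exposure,”, “with” for “using”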

[3] = Hela SMARCA4-HiBiT cells, 24 hours treatment
[4] = Hela SMARCA2-HiBiT cells, 24 hours treatment; read-out: SMARC A2 Hela HiBit DC50
[5] = Hela SMARCA2-HiBiT cells, 24 hours treatment; read-out: SMARC A2 Hela HiBit Dmax (%)
[6] = HeLa, read-out: SMARC A2 Hela HiBit Dmax (%)
[7] = read-out: SMARC A2 Hela HiBit DC50
[8] = Hela SMARCA2-HiBiT cells, 24 hours treatment

| DC50 [2, 4] | Dmax [2, 5] | DC50 [1] | DC50 [2, 7] | SMARC A4 Hela HiBit Dmax(%) [1, 3] | SMARC A2 Hela HiBit Dmax (%) [2, 8] | SMILES | further results |
| --- | --- | --- | --- | --- | --- | --- | --- |
| < 0.1 µM | > 90% | – | – | – | – | Cc1ncsc1-c1ccc([C@H](CCCCCN2CCC(c3ccc4c(c3)C3(CCCCC3)c3nc(=O)c5c(Br)cccc5n3-4)CC2)NC(=O)[C@H]2C[C@H](O)CN2C(=O)[C@@H](NC(=O)C2(CN3CCOCC3)CC2)C(C)(C)C)cc1 [Compound A38, (2R,4S)—N—((S)-6-(4-(4′-bromo-5′-oxo-5′H-spiro[cyclohexane-1,7′-indolo[1,2-a]quinazolin]-9′-yl)piperidin-1-yl)-1-(4-(4-methylthiazol-5-yl)phenyl)hexyl)-1-((S)-3,3-dimethyl-2-(1-(morpholinomethyl)cyclopropane-1-carboxamido)butanoyl)-4-hydroxypyrrolidine-2-carboxamide] | DC50 [1, 3]: 0.1 to 0.5 µM; Dmax [1, 3]: 70 to 90% |
| < 0.1 µM | > 90% | – | – | – | – | Cc1ncsc1-c1ccc([C@H](C)NC(=O)[C@@H]2C[C@@H](O)CN2C(=O)[C@@H](NC(=O)CN2CCC(c3ccc4c(c3)-n3c(nc(=O)c5c(Cl)cccc53)C43CCCCC3)CC2)C(C)(C)C)cc1 [Compound A39, (2S,4R)-1-((S)-2-(2-(4-(4′-chloro-5′-oxo-5′H-spiro[cyclohexane-1,7′-indolo[1,2-a]quinazolin]-10′-yl)piperidin-1-yl)acetamido)-3,3-dimethylbutanoyl)-4-hydroxy-N—((S)-1-(4-(4-methylthiazol-5-yl)phenyl)ethyl)pyrrolidine-2-carboxamide] | DC50 [1, 3]: < 0.1 µM; Dmax [1, 3]: > 90% |
| – | 70 to 90% | – | – | – | – | Cc1ncsc1-c1ccc([C@H](C)NC(=O)[C@@H]2C[C@@H](O)CN2C(=O)[C@@H](NC(=O)[C@H]2CC[C@H](CN3CCC(c4ccc5c(c4)-n4c(nc(=O)c6c(Cl)cccc64)C54CCCCC4)CC3)CC2)C(C)(C)C)cc1 [Compound A42, (2S,4R)-1-((S)-2-((1r,4S)-4-((4-(4′-chloro-5′-oxo-5′H-spiro[cyclohexane-1,7′-indolo[1,2-a]quinazolin]-10′-yl)piperidin-1-yl)methyl)cyclohexane-1-carboxamido)-3,3-dimethylbutanoyl)-4-hydroxy-N—((S)-1-(4-(4-methylthiazol-5-yl)phenyl)ethyl)pyrrolidine-2-carboxamide] | SMARC A4 Hela HiBit DC50(nM) [1, 3]: No Fit; DC50 ([2]; read-out: SMARC A2 Hela HiBit DC50; Hela SMARCA2-HiBiT cells, 24 hours treatment): < 0.1 µM |
| < 0.1 µM | > 90% | – | – | – | – | Cc1ncsc1-c1ccc([C@H](C)NC(=O)[C@@H]2C[C@@H](O)CN2C(=O)[C@@H](n2cc(CN3CCC(c4ccc5c(c4)-n4c(nc(=O)c6c(Br)cccc64)C54CCCCC4)CC3)nn2)C(C)(C)C)cc1 [Compound A43, (2S,4R)-1-((S)-2-(4-((4-(4′-bromo-5′-oxo-5′H-spiro[cyclohexane-1,7′-indolo[1,2-a]quinazolin]-10′-yl)piperidin-1-yl)methyl)-1H-1,2,3-triazol-1-yl)-3,3-dimethylbutanoyl)-4-hydroxy-N—((S)-1-(4-(4-methylthiazol-5-yl)phenyl)ethyl)pyrrolidine-2-carboxamide] | DC50 [1, 3]: < 0.1 µM; Dmax [1, 3]: 70 to 90% |
| – | – | < 0.1 µM | < 0.1 µM | B (B (70-90% degradation)) | A (A (>90% degradation)) | Cc1ncsc1-c1ccc([C@H](C)NC(=O)[C@@H]2C[C@@H](O)CN2C(=O)[C@@H](n2cc(CCCN3CCC(c4ccc5c(c4)-n4c(nc(=O)c6c(Br)cccc64)C54CCCCC4)CC3)nn2)C(C)(C)C)cc1 [Compound A44, (2S,4R)-1-((S)-2-(4-(3-(4-(4′-bromo-5′-oxo-5′H-spiro[cyclohexane-1,7′-indolo[1,2-a]quinazolin]-10′-yl)piperidin-1-yl)propyl)-1H-1,2,3-triazol-1-yl)-3,3-dimethylbutanoyl)-4-hydroxy-N—((S)-1-(4-(4-methylthiazol-5-yl)phenyl)ethyl)pyrrolidine-2-carboxamide] | – |
| – | – | < 0.1 µM | < 0.1 µM | B (B (70-90% degradation)) | A (A (>90% degradation)) | Cc1ncsc1-c1ccc([C@H](C)NC(=O)[C@@H]2C[C@@H](O)CN2C(=O)[C@@H](n2cc(CCCCN3CCC(c4ccc5c(c4)-n4c(nc(=O)c6c(Br)cccc64)C54CCCCC4)CC3)nn2)C(C)(C)C)cc1 [Compound A45, (2S,4R)-1-((S)-2-(4-(4-(4-(4′-bromo-5′-oxo-5′H-spiro[cyclohexane-1,7′-indolo[1,2-a]quinazolin]-10′-yl)piperidin-1-yl)butyl)-1H-1,2,3-triazol-1-yl)-3,3-dimethylbutanoyl)-4-hydroxy-N—((S)-1-(4-(4-methylthiazol-5-yl)phenyl)ethyl)pyrrolidine-2-carboxamide] | – |
| – | – | < 0.1 µM | < 0.1 µM | B (B (70-90% degradation)) | A (A (>90% degradation)) | Cc1ncsc1-c1ccc([C@H](C)NC(=O)[C@@H]2C[C@@H](O)CN2C(=O)[C@@H](n2cc(CCCCCN3CCC(c4ccc5c(c4)-n4c(nc(=O)c6c(Br)cccc64)C54CCCCC4)CC3)nn2)C(C)(C)C)cc1 [Compound A46, (2S,4R)-1-((S)-2-(4-(5-(4-(4′-bromo-5′-oxo-5′H-spiro[cyclohexane-1,7′-indolo[1,2-a]quinazolin]-10′-yl)piperidin-1-yl)pentyl)-1H-1,2,3-triazol-1-yl)-3,3-dimethylbutanoyl)-4-hydroxy-N—((S)-1-(4-(4-methylthiazol-5-yl)phenyl)ethyl)pyrrolidine-2-carboxamide] | – |
| – | – | < 0.1 µM | < 0.1 µM | A (A (>90% degradation)) | A (A (>90% degradation)) | Cc1ncsc1-c1ccc([C@H](C)NC(=O)[C@@H]2C[C@@H](O)CN2C(=O)[C@@H](n2cc(CCCCCCN3CCC(c4ccc5c(c4)-n4c(nc(=O)c6c(Br)cccc64)C54CCCCC4)CC3)nn2)C(C)(C)C)cc1 [Compound A47, (2S,4R)-1-((S)-2-(4-(6-(4-(4′-bromo-5′-oxo-5′H-spiro[cyclohexane-1,7′-indolo[1,2-a]quinazolin]-10′-yl)piperidin-1-yl)hexyl)-1H-1,2,3-triazol-1-yl)-3,3-dimethylbutanoyl)-4-hydroxy-N—((S)-1-(4-(4-methylthiazol-5-yl)phenyl)ethyl)pyrrolidine-2-carboxamide] | – |
| – | – | 0.1 to 0.5 µM | < 0.1 µM | C (C (50-69% degradation)) | A (A (>90% degradation)) | Cc1ncsc1-c1ccc([C@H](C)NC(=O)[C@@H]2C[C@@H](O)CN2C(=O)[C@@H](n2cc(CCN3CCC(c4ccc5c(c4)-n4c(nc(=O)c6c(Br)cccc64)C54CCCCC4)CC3)nn2)C(C)(C)C)cc1 [Compound A48, (2S,4R)-1-((S)-2-(4-(2-(4-(4′-bromo-5′-oxo-5′H-spiro[cyclohexane-1,7′-indolo[1,2-a]quinazolin]-10′-yl)piperidin-1-yl)ethyl)-1H-1,2,3-triazol-1-yl)-3,3-dimethylbutanoyl)-4-hydroxy-N—((S)-1-(4-(4-methylthiazol-5-yl)phenyl)ethyl)pyrrolidine-2-carboxamide] | – |

| SMILES | DC50 [2, 4] | Dmax [2, 5] | DC50 [1] | DC50 [2, 7] | SMARC A4 Hela HiBit Dmax(%) [1, 3] | SMARC A2 Hela HiBit Dmax (%) [2, 8] | further results |
| --- | --- | --- | --- | --- | --- | --- | --- |
| Cc1ncsc1-c1ccc([C@H](C)NC(=O)[C@@H]2C[C@@H](O)CN2C(=O)[C@@H](NC(=O)CN2CCC(c3ccc4c(c3)-n3c(nc(=O)c5c(Br)cccc53)C43CCCCC3)CC2)C(C)(C)C)cc1 [Compound A40, (2S,4R)-1-((S)-2-(2-(4-(4′-bromo-5′-oxo-5′H-spiro[cyclohexane-1,7′-indolo[1,2-a]quinazolin]-10′-yl)piperidin-1-yl)acetamido)-3,3-dimethylbutanoyl)-4-hydroxy-N—((S)-1-(4-(4-methylthiazol-5-yl)phenyl)ethyl)pyrrolidine-2-carboxamide] | – | – | < 0.1 µM | < 0.1 µM | – | – | Dmax ([1]; HeLa): > 90%; Dmax [2, 6]: > 90% |
| Cc1ncsc1-c1ccc([C@H](C)NC(=O)[C@@H]2C[C@@H](O)CN2C(=O)[C@@H](NC(=O)[C@H]2CC[C@H](CN3CCC(c4ccc5c(c4)-n4c(nc(=O)c6c(Br)cccc64)C54CCCCC4)CC3)CC2)C(C)(C)C)cc1 [Compound A41, (2S,4R)-1-((S)-2-((1r,4S)-4-((4-(4′-bromo-5′-oxo-5′H-spiro[cyclohexane-1,7′-indolo[1,2-a]quinazolin]-10′-yl)piperidin-1-yl)methyl)cyclohexane-1-carboxamido)-3,3-dimethylbutanoyl)-4-hydroxy-N—((S)-1-(4-(4-methylthiazol-5-yl)phenyl)ethyl)pyrrolidine-2-carboxamide] | < 0.1 µM | – | – | – | – | – | Dmax ([1]; HeLa): < 50%; SMARC A4 Hela HiBit DC50(nM) [1, 3]: No Fit; Dmax [2, 6]: 70 to 90% |

Source: patent US20260092071A1, “COMPOUNDS AND COMPOSITIONS AS SMARCA2/4 DEGRADERS AND USES THEREOF” (REGENTS OF THE UNIVERSITY OF MICHIGAN, priority 2022, published 2026)
